From patent publication EP0494283B1, “1,4-BENZODIOXANE DERIVATIVES, PROCESS FOR THE PREPARATION THEREOF AND PHARMACEUTICAL COMPOSITIONS THEREFROM” (LABORATORIOS MENARINI S.A., priority 1990, dated 1992) come the findings set out here.

Assay type in all cases: cell-based
For one experiment, the system named is rabbit washed platelets. Kind of experiment: Platelet aggregating effect (aggregometry, washed platelets). As to conditions: Oryctolagus cuniculus, suspension of rabbit washed platelets, acetylsalicylic acid and apirase added, read-out: Aggregation EC₅₀. Here is the method: (§1) Platelets are prepared starting from blood samples obtained by means of a carotid cannula from male albino New Zealand rabbits (2-2.5 kg), subjected to anticoagulant treatment with sodium citrate dihydrate (3.2%) 1:10. Blood is centrifuged (150xg, 10 min, 22°C) to separate the platelet-rich plasma fraction (PRP) from erythrocytes. Platelets are separated from plasmatic components by serial washings and centrifugations (Blood, 1986, 62:337), thereafter they are suspended in a physiological buffer at a concentration of 5 x 10⁵/ml. A 400 µl volume of the above mentioned suspension is placed into the cuvette of a multicanal aggregometer (Aggrecoder HU) where it is kept at constant temperature and stirring. After stabilization, platelets are added with 50 µl of physiological buffer containing 100 µM acetylsalicylic acid and apirase 5 mg/ml, in order to block any non PAF-related platelet activation metabolic pathways. Subsequently the platelet suspensions are added with 50 µl of the different solutions to be tested. Changes in light transmission, due to platelet aggregation in the suspension, are recorded and expressed as percent platelet aggregation, according to the procedure by Born and Cross (J. Physiol., 1962, 162:67). Standard curve is performed with PAF within a concentration range of 0.1-1 nM.

For another experiment, the system named is HL-60 tumor cells. Kind of experiment: Cytotoxic activity, Trypan Blue exclusion. Particulars: Homo sapiens, read-out: Cytotoxicity EC₅₀. Here is the method:
Suspensions of HL-60 Line cells, obtained starting from human promyelocyte leukemia, are incubated in 6-well culture plates for 24 hours at 37°C, at a concentration of 1 x 10⁶ cells/ml, in the presence of the test products, which have previously been dissolved in the culture medium. Cytotoxicity is measured by means of the Trypan Blue exclusion technique (Practical Immunology, pp 29-32, Oxford, England : Blackwell Scientific Publications, 1976).

The subject of experiment [1] is PAF-induced platelet aggregation. The experiment is described as follows: Inhibition of PAF-induced platelet aggregation (aggregometry, washed platelets). Particulars: Oryctolagus cuniculus, rabbit washed platelets, on the maximum aggregation values of the PAF standard curve, read-out: Paf-antagonism IC₅₀. The method, then:
as §1
Capability to inhibit PAF-induced platelet aggregation is evaluated by means of the aggregometry technique in suspensions of rabbit washed platelets, obtained by means of the same procedure as described in Example 32. For this purpose, the inhibition potency of the products under test, expressed as the corresponding IC₅₀, is evaluated on the maximum aggregation values obtained in PAF standard curve.

[2] abbreviates: HL-60 cells, 1 x 10⁶ cells/ml, 24 hours at 37°C.

Structures are written as SMILES. Structures can show the parent of a compound that is named as a salt. Where two headings read alike, the source gives them in different places. Bounds are passed on as bounds.

As for `C[N+]1(CCCCCOCC2COc3ccccc3O2)CCCCC1` (centres unmarked) [Example 21, N-[5-[[(1,4-Benzodioxan-2-yl)methyl]oxy]pentyl]-N-methylpiperidinium iodide], the EC50 with rabbit washed platelets is > 190 µM. Consider `c1ccc2c(c1)OCC(COCCCCN1CCOCC1)O2` (centres unmarked) [Example 16, N-[4-[[(1,4-Benzodioxan-2-yl)methyl]oxy]butyl]morpholine hydrochloride], for which, in the experiment on HL-60 tumor cells (setting [2]), the EC50 came to 18 µM. For the compound `C[N+](C)(C)CCCCCCCCCCCCCCCCOCC1COc2ccccc2O1` (centres unmarked) [Example 5, N-[16[[(1,4-Benzodioxan-2-yl)methyl]oxy]hexadecyl]-N,N,N-trimethylammonium bromide], the IC50 in experiment [1] was determined as 20 µM. Besides, the EC50 in the experiment on HL-60 tumor cells (HL-60, 24 h) is 18 µM. With `CC[N+](CC)(CC)CCCCOCC1COc2ccccc2O1` (centres unmarked) [Example 8, N-[4-[[(1,4-Benzodioxan-2-yl)methyl]oxy]butyl]-N,N,N-triethylammonium bromide], the EC50 in the experiment on rabbit washed platelets is > 190 µM. With `C[N+]1(CCCCCCOCCCCCCCCCCOCC2COc3ccccc3O2)CCCCC1` (centres unmarked) [Example 25, N-[6-[[(10-[[1,4-Benzodioxan-2-yl)methyl]oxy]decyl]oxy]hexyl]-N-methylpiperidinium bromide], the EC50 in the experiment on HL-60 tumor cells (setting [2]) amounted to 3 µM. Consider `C[N+]1(CCCCCCCCCCOCCCCCCCCCCOCC2COc3ccccc3O2)CCCCC1` (centres unmarked) [Example 26, N-[10-[[10-[[(1,4-Benzodioxan-2-yl)methyl]oxy]decyl]oxy]decyl]-N-methylpiperidinium bromide], for which the EC50 in the experiment with HL-60 tumor cells (setting [2]) worked out at 28 µM. Turning to `c1ccc2c(c1)OCC(COCCCCCCCCCCN1CCCCC1)O2` (centres unmarked) [Example 15, N-[10-[[(1,4-Benzodioxan-2-yl)methyl]oxy]decyl]piperidine hydrochloride], the EC50 with HL-60 tumor cells (setting [2]) came to 20 µM. The same measure, in the same setting: under `C[N+](C)(C)CCCCCCCCCCOCCCCCCCCCCOCC1COc2ccccc2O1` (centres unmarked) [Example 7, N-[10-[[10-[[(1,4-Benzodioxan-2-yl)methyl]oxy]decyl]oxy]decyl]-N,N,N-trimethylammonium bromide] stands 15 µM.

Turning to `C[N+]1(CCCCCCCCCCCCCCCCOCC2COc3ccccc3O2)CCCCC1` (centres unmarked) [Example 24, N-[16-[[(1,4-Benzodioxan-2-yl)methyl]oxy]hexadecyl]-N-methylpiperidinium bromide], the EC50 with HL-60 tumor cells (setting [2]) was 6 µM.

For `C[N+](C)(C)CCCCCCOCCCCCCCCCCOCC1COc2ccccc2O1` (centres unmarked) [Example 6, N-[6-[[(10-[[1,4-Benzodioxan-2-yl)methyl]oxy]decyl]oxy]hexyl]-N,N,N-trimethylammonium bromide], the EC50 with HL-60 tumor cells (setting [2]) amounted to 11 µM. Regarding `CC[N+](CC)(CC)CCCCCCCCCCOCC1COc2ccccc2O1` (centres unmarked) [Example 10, N-[10-[[(1,4-Benzodioxan-2-yl)methyl]oxy]decyl]-N,N,N-triethylammonium bromide], the IC50 in experiment [1] stood at 90 µM. Also, the EC50 with HL-60 tumor cells (HL-60, 24 h) is 30 µM. Regarding `C[N+]1(CCCCCCCCCCOCC2COc3ccccc3O2)CCCCC1` (centres unmarked) [Example 23, N-[10-[[(1,4-Benzodioxan-2-yl)methyl]oxy]decyl]-N-methylpiperidinium bromide], the IC50 in experiment [1] amounted to 75 µM. In the experiment on HL-60 tumor cells (HL-60, 24 h), the EC50 was determined as 20 µM.

As for `c1ccc2c(c1)OCC(COCCCCCCCCCCN1CCOCC1)O2` (centres unmarked) [Example 19, N-[10-[[(1,4-Benzodioxan-2-yl)methyl]oxy]decyl]morpholine hydrochloride], the EC50 in the experiment with HL-60 tumor cells (setting [2]) is 30 µM.

Take `C[N+](C)(C)CCCCCCCCCCOCC1COc2ccccc2O1` (centres unmarked) [Example 4, N-[10-[[(1,4-Benzodioxan-2-yl)methyl]oxy]decyl]-N,N,N-trimethylammonium bromide]: the IC50 in experiment [1] came out at 130 µM. The EC50 in the experiment on HL-60 tumor cells (HL-60, 24 h) is 70 µM. The like results for `C[N+]1(CCCCCCCCCCOCC2COc3ccccc3O2)CCOCC1` (centres unmarked) [Example 30, N-[10-[[(1,4-Benzodioxan-2-yl)methyl]oxy]decyl]-N-methylmorpholinium iodide] were, in that order, 190 µM and 30 µM.
